Source: patent publication US20060148710A1, “Oligopeptides, composition and use thereof as elicitors of the natural defences of plants” (DE Sangosse SA, priority 2003, published 2006)
Several values for one entry are separate records, joined by “and”; a condition that tells them apart may be missing. Equal values may be shown once.

Legend:
Zucchini plants = assay: Peroxydasic activity in treated zucchini plants; type: in vivo; settings: for Peroxydasic activity / Percent of peroxydasic activity relative to the product: zucchini plants aged 3 weeks, product 3.5 mg/L; for Percent of peroxydasic activity relative to the product: product 6 = 100%; for elicitor activity: zucchini plants, comparison in words
Description: (§1) a) Measurement of the Peroxydasic Acttivity (Enzyme Endogenous to Plants)
(§2) Given the primordial role of the peroxydases in the resistance of plants, we have used the peroxydasic activity as a marker of the resistance following treatments by elicitors.
(§3) So as to measure the peroxydasic activities, leaves are crushed in a citrate-monohydrogeno-phosphate-disodium buffer. The extract is then placed in gaiacol and oxygenated water. A rapid reaction takes place: the gaiacol is transformed into tetragaiacol. The appearance of tetragaiacol in the medium permits us to calculate the peroxydasic activity.
(§4) Measurements are carried out in this same buffer by using the gaiacol as substrate. The results are expressed in ΔDO/mn/g of fresh material.
(§5) All the plants tested are young plants obtained from seed or by slipping. Pulverization is effected of the formulations obtained from oligopeptides. These formulations contain various wetting or penetrating agents capable of carrying the active material (oligopeptides) to the cells.
Zucchini plants aged 3 weeks have been treated with oligopeptides.

tobacco plants = settings: 10 mM; cited from earlier work
Grape plants [1] = assay: Peroxydasic activity in treated grape plants; type: in vivo; settings: grape plants aged 3 weeks
Description: as §1, §2, §3, §4, §5
(§6) Grape plants aged 3 weeks have been treated with oligopeptides. The results obtained are assembled in Tables II, III (Sheet 1/2).

Grape plants [2] = assay: Chitinasic activity in treated grape plants; type: in vivo; settings: grape plants aged 3 weeks
Procedure: b) Measurement of the Chitinasic Activity
So as to verify that the mechanisms of resistance are triggered, we have also measured an enzymatic activity appearing in the situations of resistance: the chitinasic activity (enzyme synthesis upon attack of the parasites, which degrades chitin, constituting the walls of the phytopathogenic mushrooms).
Colormetric reaction used: there is used an acetate buffer:
Solution of chitin+enzymatic extract+acetate buffer qsp 0.5 ml (blue at 2 mg/ml) crude 50 mM-(pH5) (100 microliters)
incubation for 30 minutes at 37° C., and under continuous agitation.
the reaction is stopped by addition of a solution of HCL 1N
colormetric or spectrophotometric measurement at 550 nm
The chitinasic activity is expressed as ΔDO/mn/g of fresh material.
as §5, §6

Molecule	Peroxydasic activity (Zucchini plants)	Percent of peroxydasic activity relative to the product (Zucchini plants)	further results
H-Ala1-Ala-ol [Product 7]	99.16 ΔDO/min/aMF	28.49%	–
NCCCC(=O)O [GABA, γ-aminobutyric acid, reference compound]	49.1 ΔDO/min/aMF	14.11%	capacity to trigger the ARS (tobacco plants): totally inactive
CCC(N)C(=O)O (stereo not drawn) [α-aminobutyric acid]	–	–	capacity to trigger the ARS (tobacco plants): less active
H-Alan-Ala-OH [Product 13]	–	–	Percent of peroxydasic activity relative to the most active product (Grape plants [1]): 59.49%; Peroxydasic activity (Grape plants [1]): 136.6 ΔDO/mn/g of fresh material; Chitinasic activity (Grape plants [2]): 65.3 ΔDO/mn/g of fresh material; Percent of chitinasic activity relative to the most active product (Grape plants [2]): 100%
H-Alan-Ala-ol [Product 6]	348 ΔDO/min/aMF	100%	Percent of peroxydasic activity relative to the most active product (Grape plants [1]): 81.66%; Peroxydasic activity (Grape plants [1]): 187.5 ΔDO/mn/g of fresh material; Chitinasic activity (Grape plants [2]): 45.4 ΔDO/mn/g of fresh material; Percent of chitinasic activity relative to the most active product (Grape plants [2]): 80.94%; elicitor activity (Zucchini plants): strongest elicitor activity
H-Ala3-Ala-ol [Product 9]	112 ΔDO/min/aMF	32.18%	–
H-Ala2-Ala-ol [Product 8]	94.6 ΔDO/min/aMF	27.18%	–
CC(C)(N)C(=O)O [Aib, α-aminoisobutyric acid, reference compound]	53.1 ΔDO/min/aMF	15.26%	–
H-Ala6-Ala-OH [Product 12]	175 ΔDO/min/aMF	50% and 50.28%	–
CC(N)CC(=O)O (stereo not drawn) [β-aminobutyric acid]	–	–	capacity to trigger the ARS (tobacco plants): active
H-Ala4-Ala-ol [Product 10]	194 ΔDO/min/aMF	55.74%	–
CC(N)CO (centres unmarked) [Alininol, Alaninol, reference compound]	69.46 ΔDO/min/aMF	19.96%	elicitor activity (Zucchini plants): most active of the residues tested
H-Ala5-Ala-ol [Product 11]	102 ΔDO/min/aMF	29.31%	–
C[C@H](N)C(=O)O [Alanine, reference compound]	65.78 ΔDO/min/aMF	18.9%	–
